Reference: ChEMBL document CHEMBL3632570, “Structure-Guided Design of Novel l-Cysteine Derivatives as Potent KSP Inhibitors” (ACS Med Chem Lett, 2015)
The source made the active and inactive calls. The rule behind the calls is not given here.

Experiments:
[1] = target: T1, Kinesin-like protein KIF22 (Homo sapiens) (UniProt Q14807); test: Inhibition of microtubule-stimulated Kid motor domain (1 to 336) (unknown origin) ATPase activity at 6.3 uM
T1 sequence (whole entry): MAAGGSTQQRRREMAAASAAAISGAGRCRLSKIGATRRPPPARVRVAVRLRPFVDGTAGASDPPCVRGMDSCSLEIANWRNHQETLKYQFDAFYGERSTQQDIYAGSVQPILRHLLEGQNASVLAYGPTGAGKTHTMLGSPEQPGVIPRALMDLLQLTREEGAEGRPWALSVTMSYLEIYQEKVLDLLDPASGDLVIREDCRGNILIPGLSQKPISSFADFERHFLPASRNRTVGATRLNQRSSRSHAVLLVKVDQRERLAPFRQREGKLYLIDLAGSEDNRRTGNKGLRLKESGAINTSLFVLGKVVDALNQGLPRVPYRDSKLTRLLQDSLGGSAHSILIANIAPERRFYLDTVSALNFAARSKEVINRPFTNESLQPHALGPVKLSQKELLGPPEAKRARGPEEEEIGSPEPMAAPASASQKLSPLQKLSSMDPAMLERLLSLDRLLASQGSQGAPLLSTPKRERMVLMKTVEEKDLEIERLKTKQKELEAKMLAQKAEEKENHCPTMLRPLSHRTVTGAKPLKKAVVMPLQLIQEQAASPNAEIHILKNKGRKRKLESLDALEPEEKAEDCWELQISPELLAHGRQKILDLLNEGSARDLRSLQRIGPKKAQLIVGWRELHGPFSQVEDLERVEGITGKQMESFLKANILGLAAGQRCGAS

[2] = target: T2, Kinesin-like protein KIFC3 (Homo sapiens) (UniProt Q9BVG8); test: Inhibition of microtubule-stimulated KIFC3 motor domain (303 to 638) (unknown origin) ATPase activity at 6.3 uM
T2 sequence (whole entry): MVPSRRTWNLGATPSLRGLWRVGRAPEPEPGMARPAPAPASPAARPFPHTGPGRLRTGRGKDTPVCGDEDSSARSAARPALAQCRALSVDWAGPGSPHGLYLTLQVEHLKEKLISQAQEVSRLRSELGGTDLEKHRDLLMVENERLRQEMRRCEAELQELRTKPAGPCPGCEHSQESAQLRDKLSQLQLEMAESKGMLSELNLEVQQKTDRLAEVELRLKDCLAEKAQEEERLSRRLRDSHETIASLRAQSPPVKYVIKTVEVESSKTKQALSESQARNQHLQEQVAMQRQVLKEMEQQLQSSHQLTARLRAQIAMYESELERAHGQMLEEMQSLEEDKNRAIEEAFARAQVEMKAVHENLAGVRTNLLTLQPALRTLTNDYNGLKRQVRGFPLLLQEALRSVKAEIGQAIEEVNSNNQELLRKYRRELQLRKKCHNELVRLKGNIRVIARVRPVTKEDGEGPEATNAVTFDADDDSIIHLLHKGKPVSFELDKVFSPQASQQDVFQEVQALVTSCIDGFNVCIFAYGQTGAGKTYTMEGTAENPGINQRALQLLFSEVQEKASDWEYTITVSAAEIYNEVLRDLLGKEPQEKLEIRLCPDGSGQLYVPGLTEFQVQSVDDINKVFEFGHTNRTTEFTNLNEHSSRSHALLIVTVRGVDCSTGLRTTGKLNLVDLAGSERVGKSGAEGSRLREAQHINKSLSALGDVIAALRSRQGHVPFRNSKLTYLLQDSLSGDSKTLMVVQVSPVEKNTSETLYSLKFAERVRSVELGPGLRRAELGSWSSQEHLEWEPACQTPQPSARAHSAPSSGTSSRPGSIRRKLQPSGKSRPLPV

[3] = target: T3, Kinesin-like protein KIF11 (Homo sapiens, UniProt P52732); test: Inhibition of His-tagged KSP motor domain (1 to 369) (unknown origin) assessed as inhibition of microtubule-stimulated KSP ATPase activity preincuabted for 30 mins followed by ATP addition measured after 15 mins by Kinase-Glo assay
T3 sequence (P52732 whole entry): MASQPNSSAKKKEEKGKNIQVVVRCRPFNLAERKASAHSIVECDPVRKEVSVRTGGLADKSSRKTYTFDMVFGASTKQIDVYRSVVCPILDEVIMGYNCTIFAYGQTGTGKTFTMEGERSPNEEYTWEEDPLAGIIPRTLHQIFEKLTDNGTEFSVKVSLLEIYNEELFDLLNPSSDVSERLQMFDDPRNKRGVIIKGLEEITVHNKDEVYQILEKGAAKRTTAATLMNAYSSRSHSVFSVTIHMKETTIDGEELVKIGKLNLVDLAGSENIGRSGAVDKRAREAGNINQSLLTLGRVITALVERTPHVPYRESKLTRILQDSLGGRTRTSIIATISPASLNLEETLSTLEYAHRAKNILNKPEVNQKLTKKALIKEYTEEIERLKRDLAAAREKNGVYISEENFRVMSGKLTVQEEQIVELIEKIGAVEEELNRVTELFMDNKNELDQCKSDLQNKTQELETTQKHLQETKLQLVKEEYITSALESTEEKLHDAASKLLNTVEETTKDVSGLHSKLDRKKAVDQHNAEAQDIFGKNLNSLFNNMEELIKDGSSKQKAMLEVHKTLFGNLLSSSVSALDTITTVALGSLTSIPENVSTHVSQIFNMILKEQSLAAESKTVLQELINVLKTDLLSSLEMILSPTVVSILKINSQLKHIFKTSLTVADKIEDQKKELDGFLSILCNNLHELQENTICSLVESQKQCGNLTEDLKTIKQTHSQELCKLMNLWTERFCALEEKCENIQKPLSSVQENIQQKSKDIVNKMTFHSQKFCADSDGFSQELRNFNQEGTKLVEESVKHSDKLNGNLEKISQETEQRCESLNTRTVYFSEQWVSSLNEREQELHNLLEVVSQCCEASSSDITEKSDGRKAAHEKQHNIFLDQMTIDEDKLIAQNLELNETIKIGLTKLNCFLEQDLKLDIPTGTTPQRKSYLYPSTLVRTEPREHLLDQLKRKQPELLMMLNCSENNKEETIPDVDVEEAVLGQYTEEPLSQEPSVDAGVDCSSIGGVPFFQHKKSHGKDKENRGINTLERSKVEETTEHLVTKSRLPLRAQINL

HCT-116 = test: Antitumor activity against human HCT116 cells xenografted in athymic nude BALB/cAJcL mouse assessed as inhibition of tumor growth at 25 mg/kg, iv administered on days 1,3,5,8,10 and 12 measured on day 15; type: functional
Mus musculus [4] = test: Toxicity in athymic nude BALB/cAJcL mouse xenografted with HCT116 cells assessed as body weight loss at 25 mg/kg, iv administered on days 1,3,5,8,10 and 12 relative to vehicle-treated control; type: organism-based, HCT-116; details: in vivo
[5] = target: Centromere-associated protein E (Homo sapiens) (UniProt Q02224); test: Inhibition of microtubule-stimulated CENP-E motor domain (1 to 339) (unknown origin) ATPase activity at 6.3 uM
Chain of Centromere-associated protein E (Homo sapiens) (Q02224 whole entry, the tested form may be a part): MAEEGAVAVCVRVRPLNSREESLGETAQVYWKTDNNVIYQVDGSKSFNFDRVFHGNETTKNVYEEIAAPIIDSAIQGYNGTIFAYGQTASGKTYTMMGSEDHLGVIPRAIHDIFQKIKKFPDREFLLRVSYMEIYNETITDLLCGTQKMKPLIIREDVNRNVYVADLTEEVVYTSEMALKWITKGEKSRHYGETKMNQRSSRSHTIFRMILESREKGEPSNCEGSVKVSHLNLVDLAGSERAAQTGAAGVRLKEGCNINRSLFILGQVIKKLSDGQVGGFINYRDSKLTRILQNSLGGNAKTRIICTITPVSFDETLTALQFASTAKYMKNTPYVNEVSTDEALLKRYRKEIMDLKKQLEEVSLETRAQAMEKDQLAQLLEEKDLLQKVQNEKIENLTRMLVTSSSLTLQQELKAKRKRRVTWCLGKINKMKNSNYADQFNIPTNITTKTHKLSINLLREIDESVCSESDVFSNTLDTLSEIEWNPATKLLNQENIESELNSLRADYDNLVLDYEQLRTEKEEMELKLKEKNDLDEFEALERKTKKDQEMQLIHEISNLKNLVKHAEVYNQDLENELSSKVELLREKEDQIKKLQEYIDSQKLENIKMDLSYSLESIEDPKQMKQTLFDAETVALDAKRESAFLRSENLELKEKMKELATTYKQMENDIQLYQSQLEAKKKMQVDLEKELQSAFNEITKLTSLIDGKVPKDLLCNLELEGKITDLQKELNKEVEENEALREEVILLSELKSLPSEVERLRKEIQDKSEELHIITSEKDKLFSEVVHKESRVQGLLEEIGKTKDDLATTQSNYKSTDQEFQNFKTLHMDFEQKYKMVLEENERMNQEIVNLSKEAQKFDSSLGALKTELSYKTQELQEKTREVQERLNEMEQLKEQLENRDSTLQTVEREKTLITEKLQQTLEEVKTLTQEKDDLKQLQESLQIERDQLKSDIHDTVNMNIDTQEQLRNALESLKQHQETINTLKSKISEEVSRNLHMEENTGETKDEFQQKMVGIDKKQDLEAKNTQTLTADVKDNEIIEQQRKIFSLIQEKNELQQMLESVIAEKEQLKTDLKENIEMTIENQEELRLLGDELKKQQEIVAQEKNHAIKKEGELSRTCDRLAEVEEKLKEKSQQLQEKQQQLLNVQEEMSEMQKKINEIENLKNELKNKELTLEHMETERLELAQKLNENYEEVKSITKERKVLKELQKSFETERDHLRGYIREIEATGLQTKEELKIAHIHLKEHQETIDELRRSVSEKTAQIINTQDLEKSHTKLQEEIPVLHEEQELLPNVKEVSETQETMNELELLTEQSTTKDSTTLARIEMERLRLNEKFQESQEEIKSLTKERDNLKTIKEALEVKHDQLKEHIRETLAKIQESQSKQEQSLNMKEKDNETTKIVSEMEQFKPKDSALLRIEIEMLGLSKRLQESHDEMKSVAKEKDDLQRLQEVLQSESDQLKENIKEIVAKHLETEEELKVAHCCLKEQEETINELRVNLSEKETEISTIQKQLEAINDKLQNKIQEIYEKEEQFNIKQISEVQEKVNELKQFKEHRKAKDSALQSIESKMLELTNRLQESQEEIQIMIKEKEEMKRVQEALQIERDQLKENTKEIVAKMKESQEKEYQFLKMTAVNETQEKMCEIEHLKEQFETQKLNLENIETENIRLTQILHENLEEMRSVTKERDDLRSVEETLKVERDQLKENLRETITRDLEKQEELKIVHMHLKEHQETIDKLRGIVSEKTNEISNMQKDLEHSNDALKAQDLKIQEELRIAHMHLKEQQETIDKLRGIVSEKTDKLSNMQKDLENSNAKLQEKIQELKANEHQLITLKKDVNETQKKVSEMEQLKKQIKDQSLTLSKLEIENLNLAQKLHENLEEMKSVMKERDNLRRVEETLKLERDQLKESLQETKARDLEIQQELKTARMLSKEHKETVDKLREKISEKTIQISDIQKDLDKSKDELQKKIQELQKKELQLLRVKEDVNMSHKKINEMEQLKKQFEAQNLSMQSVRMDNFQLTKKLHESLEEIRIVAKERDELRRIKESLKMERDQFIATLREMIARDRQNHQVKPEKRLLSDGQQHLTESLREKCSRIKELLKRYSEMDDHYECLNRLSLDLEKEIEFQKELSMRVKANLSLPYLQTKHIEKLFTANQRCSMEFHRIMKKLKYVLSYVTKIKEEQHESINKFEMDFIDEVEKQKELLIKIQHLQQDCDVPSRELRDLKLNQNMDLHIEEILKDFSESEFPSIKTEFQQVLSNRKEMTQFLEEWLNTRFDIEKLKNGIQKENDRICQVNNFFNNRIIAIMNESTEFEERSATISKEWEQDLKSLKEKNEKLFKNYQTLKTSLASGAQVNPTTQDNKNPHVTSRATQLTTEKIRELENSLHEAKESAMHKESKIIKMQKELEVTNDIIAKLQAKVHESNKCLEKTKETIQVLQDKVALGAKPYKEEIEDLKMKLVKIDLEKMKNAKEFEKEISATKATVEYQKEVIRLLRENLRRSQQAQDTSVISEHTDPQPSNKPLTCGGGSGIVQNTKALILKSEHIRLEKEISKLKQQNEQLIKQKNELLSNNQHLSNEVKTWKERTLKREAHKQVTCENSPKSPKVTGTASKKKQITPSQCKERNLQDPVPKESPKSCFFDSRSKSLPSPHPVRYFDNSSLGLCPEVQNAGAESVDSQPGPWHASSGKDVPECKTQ

Mus musculus [6] = test: Toxicity in athymic nude BALB/cAJcL mouse xenografted with HCT116 cells assessed as mortality at 25 mg/kg, iv administered on days 1,3,5,8,10 and 12; type: organism-based, HCT-116; details: in vivo

SMILES | inhibition [1] | inhibition [2] | IC50 [3] | T/C (HCT-116) | Activity (Mus musculus [4]) | inhibition [5] | Activity (Mus musculus [6])
N[C@@H](CSC1(c2ccc(C(F)(F)F)cc2)c2ccccc2CCc2ccccc21)C(=O)O | inactive | inactive | 21 nM | 21% | Toxic | inactive | Non-toxic
COc1ccc(C2(SC[C@H](N)C(=O)O)c3ccccc3CCc3ccccc32)cc1 | inactive | inactive | 14 nM | 26% | Toxic | inactive | Non-toxic
